Converted amounts (≈) assume the structure as drawn. Counter-ions that a name gives are not always drawn. Like-named read-outs stand apart in the source and are kept apart here. Where only a bound is given, the exact number is not on record here.

In assay [1] the test system is Guinea pigs sensitized to ovalbumin (anaphylactic shock). Nature of the assay: Anaphylaxis in guinea pigs: protection against death after ovalbumin challenge (survival). The format is in vivo, guinea pig. The note with it: Cavia porcellus, estimated ED50, oral, protection against death after i.v. 0.6 mg ovalbumin, read-out: Anaphylaxis in guinea pigs oral effective dose in mg/kg: Survival. The procedure:
The anti-anaphylactic and antihistaminic effects of the subject compounds (I) and salts thereof are studied "in vivo" in guinea pigs.
Guinea pigs, weighing between 400 and 500 g, are sensitized to ovalbumin by subplantar (s.p.) injection of 0.05 ml of antiserum in the left hind paw. The animals are then starved and orally treated, 24 hours after the sensitization, with saline (=control animals) or a particular dose of the compound under investigation.
The histamine injection (at a dose of 50 μg) was given s.p. in the right hind paw 2 hours after the oral pretreatment with the compound. The diameters of both hind paws are first measured before the histamine injection is given and again 10 minutes thereafter. The animals are challenged intravenously with 0.6 mg of ovalbumin 30 minutes after the histamine injection. All control animals develop typical primary anaphylactic shock symptoms (coughing, difficult breathing, convulsions) and 85% of these control animals die within 15 minutes after the ovalbumin injection. Protection against death is used as the criterion for possible drug effects and the estimated ED50 -value, i.e. the oral dose whereby the protection is observed in 50% of the guinea pigs, is listed in the tables below.

The test system of assay [2] is Guinea-pig ileum strips, histamine-induced contraction. As to the kind of experiment: Anti-histamine activity in "vitro": histamine-induced spasms of guinea-pig ileum strips. Type of assay: cell-based. The note with it: Cavia porcellus, 5 min, histamine 0.5 mg/liter, 5 minutes incubation, concentration giving significant inhibition (50%) of the contraction. The procedure:
The histamine--(0.5 mg/liter) induced spasms are recorded Kymographically with an isotonic lever giving a 5-fold magnification.

Assay [3] relates to histamine paw oedema in guinea pigs. As to the kind of experiment: Histamine paw oedema in guinea pigs. The format is in vivo, guinea pig. The note with it: Cavia porcellus, oral dose giving paw reaction below 10 units 10 minutes after 50 μg histamine s.p., 2 hours after dosing, read-out: Anaphylaxis in guinea pigs oral effective dose in mg/kg: Histamine oedema. The method, then: Guinea pigs, weighing between 400 and 500 g, are sensitized to ovalbumin by subplantar (s.p.) injection of 0.05 ml of antiserum in the left hind paw. The animals are then starved and orally treated, 24 hours after the sensitization, with saline (=control animals) or a particular dose of the compound under investigation. The histamine injection (at a dose of 50 μg) was given s.p. in the right hind paw 2 hours after the oral pretreatment with the compound.

The mark [4] stands for this setting: Table I-e, read-out: Histamine in "vitro" (ileum) effective dose.
Setting [5] is: Table I-b, read-out: Histamine in "vitro" (ileum) effective conc.
Where [6] appears, read: Table I-a, read-out: Histamine in "vitro" (ileum) effective conc.

`O=c1[nH]c2ccccc2n1CCCN1CCN(C(c2ccc(F)cc2)c2cccnc2)CC1` (stereo not drawn) [I-e: Ar1=4-FC6H4, Ar2=3-pyridinyl, 1-[3-{4-[(4-fluorophenyl)(3-pyridinyl)methyl]-1-piperazinyl}propyl]-1,3-dihydro-2H-benzimidazol-2-one]: the ED50 in assay [1] (Table I-e) was below 2.5 mg/kg. For the same compound, the IC50 in assay [2] (setting [4]) worked out at 0.08 µg/mL (≈ 0.18 µM). Also, the minimal effective dose in assay [3] (Table I-e) was below 2.5 mg/kg.
Consider `O=c1[nH]c2ccccc2n1CCCN1CCN(C(c2ccc(Cl)cc2)c2cccnc2)CC1` (stereo not drawn) [I-e: Ar1=4-Cl-C6H4, Ar2=3-pyridinyl, 1-[3-{4-[(4-chlorophenyl)(3-pyridinyl)methyl]-1-piperazinyl}propyl]-1,3-dihydro-2H-benzimidazol-2-one], for which the ED50 in assay [1] (Table I-e) was 1.25 mg/kg. Further, the IC50 in assay [2] (setting [4]) amounted to 0.08 µg/mL (≈ 0.173 µM). Moreover, the minimal effective dose in assay [3] (Table I-e) was 2.5 mg/kg.
`Cc1nc2ccccc2n1CCCN1CCN(C(c2ccccc2)c2ccccc2)CC1` [I-b: M=CH3, R1=H, (CH2)3, R6=H, R7=H, 1-{3-[4-(diphenylmethyl)-1-piperazinyl]propyl}-2-methyl-1H-benzimidazole]: the ED50 in assay [1] (Table I-b) is 2.5 mg/kg. Moreover, the IC50 in assay [2] (setting [5]) was determined as 0.02 µg/mL (≈ 0.0471 µM). Besides, the minimal effective dose in assay [3] (Table I-b) was determined as 2.5 mg/kg.
Take `Cc1nc2ccccc2n1CCCCN1CCN(C(c2ccccc2)c2ccccc2)CC1` [I-b: M=CH3, R1=H, (CH2)4, R6=H, R7=H, 1-{4-[4-(diphenylmethyl)-1-piperazinyl]butyl}-2-methyl-1H-benzimidazole]: the ED50 in assay [1] (Table I-b) was 1.25 mg/kg. Further, in assay [2] (setting [5]), the IC50 is 0.005 µg/mL (≈ 0.0114 µM). The minimal effective dose in assay [3] (Table I-b) was 1.25 mg/kg.
On to `O=c1[nH]c2ccccc2n1CCCN1CCN(C(c2ccccc2)c2cccc(Cl)c2)CC1` (stereo not drawn) [1-[3-{4-[α-(3-chlorophenyl-α-phenylmethyl]-1-piperazinyl}propyl]-1,3-dihydro-2H-benzimidazol-2-one], for which the ED50 in assay [1] (Table I-a) was 0.63 mg/kg. Further, the IC50 in assay [2] (setting [6]) is 0.01 µg/mL (≈ 0.0217 µM). The minimal effective dose in assay [3] (Table I-a) is 1.25 mg/kg.
Take `COC(=O)Nc1nc2ccccc2n1CCCN1CCN(C(c2ccccc2)c2ccccc2)CC1` [methyl [1-{3-[4-(diphenylmethyl)-1-piperazinyl]propyl}-1H-benzimidazol-2-yl]carbamate]: the ED50 in assay [1] (Table I-b) was 2.5 mg/kg. Besides, the IC50 in assay [2] (setting [5]) was at most 0.16 µg/mL. Moreover, the minimal effective dose in assay [3] (Table I-b) was found to be 2.5 mg/kg.
For the compound `CCc1nc2ccccc2n1CCCN1CCN(C(c2ccccc2)c2ccccc2)CC1` [I-b: M=C2H5, R1=H, (CH2)3, R6=H, R7=H, 1-{3-[4-(diphenylmethyl)-1-piperazinyl]propyl}-2-ethyl-1H-benzimidazole trihydrochloride.hydrate], in assay [1] (Table I-b), the ED50 is 2.5 mg/kg. In addition, the IC50 in assay [2] (setting [5]) came to 0.01 µg/mL. In addition, the minimal effective dose in assay [3] (Table I-b) amounted to 2.5 mg/kg.
Consider `O=c1[nH]c2ccccc2n1CCCN1CCN(C(c2ccc(Cl)cc2)c2ccc(Cl)cc2)CC1` [1-[3-{4-[bis(4-chlorophenyl)methyl]-1-piperazinyl}propyl]-1,3-dihydro-2H-benzimidazol-2-one], for which the ED50 in assay [1] (Table I-a) was below 2.5 mg/kg. Moreover, the IC50 in assay [2] (setting [6]) turned out to be 0.16 µg/mL (≈ 0.323 µM). In addition, the minimal effective dose in assay [3] (Table I-a) is below 2.5 mg/kg.
Regarding `Cc1ccc2[nH]c(=O)n(CCCN3CCN(C(c4ccccc4)c4ccccc4)CC3)c2c1` [1-{3-[4-(diphenylmethyl)-1-piperazinyl]propyl}-1,3-dihydro-6-methyl-2H-benzimidazol-2-one], the ED50 in assay [1] (Table I-a) was 0.16 mg/kg. In addition, in assay [2] (setting [6]), the IC50 turned out to be 0.01 µg/mL (≈ 0.0227 µM). For the same compound, the minimal effective dose in assay [3] (Table I-a) came to 0.31 mg/kg.
With `O=c1[nH]c2ccccc2n1CCCN1CCN(C(c2ccc(F)cc2)c2ccc(F)cc2)CC1` [1-[3-{4-[bis(4-fluorophenyl)methyl]-1-piperazinyl}propyl]-1,3-dihydro-2H-benzimidazol-2-one], the ED50 in assay [1] (Table I-a) is 0.31 mg/kg. In addition, in assay [2] (setting [6]), the IC50 was 0.01 µg/mL (≈ 0.0216 µM). In addition, in assay [3] (Table I-a), the minimal effective dose worked out at 0.16 mg/kg.
For the compound `Sc1nc2ccccc2n1CCCN1CCN(C(c2ccccc2)c2ccccc2)CC1` [I-b: M=HS, R1=H, (CH2)3, R6=H, R7=H, 1-{3-[4-(diphenylmethyl)-1-piperazinyl]propyl}-1H-benzimidazole-2-thiol], the ED50 in assay [1] (Table I-b) is 0.63 mg/kg. Besides, in assay [2] (setting [5]), the IC50 worked out at 0.01 µg/mL (≈ 0.0226 µM). Moreover, the minimal effective dose in assay [3] (Table I-b) was found to be 1.25 mg/kg.
Taken in the same sequence, the figures for `c1ccc(C(c2ccccc2)N2CCN(CCn3cnc4ccccc43)CC2)cc1` [I-b: M=H, R1=H, (CH2)2, R6=H, R7=H, 1-{2-[4-(diphenylmethyl)-1-piperazinyl]ethyl}-1H-benzimidazole] were 1.25 mg/kg, 0.005 µg/mL (≈ 0.0126 µM) and 1.25 mg/kg.
With `O=c1[nH]c2cc(Cl)ccc2n1CCCN1CCN(C(c2ccccc2)c2ccccc2)CC1` [5-chloro-1-{3-[4-(diphenylmethyl)-1-piperazinyl]propyl}-1,3-dihydro-2H-benzimidazol-2-one], the ED50 in assay [1] (Table I-a) was 0.63 mg/kg. Further, the IC50 in assay [2] (setting [6]) amounted to 0.01 µg/mL (≈ 0.0217 µM). Moreover, the minimal effective dose in assay [3] (Table I-a) worked out at 1.25 mg/kg.
Turning to `O=c1[nH]c2ccccc2n1CCCN1CCN(C(c2ccccc2)c2ccc(F)cc2)CC1` (stereo not drawn) [1-[3-{4-[α-(4-fluorophenyl)-α-phenylmethyl]-1-piperazinyl}propyl]-1,3-dihydro-2H-benzimidazol-2-one], the ED50 in assay [1] (Table I-a) is 0.31 mg/kg. In assay [2] (setting [6]), the IC50 was determined as 0.01 µg/mL (≈ 0.0225 µM). Further, the minimal effective dose in assay [3] (Table I-a) stood at 0.31 mg/kg.
On to `C=C(C)n1c(=O)n(CCCN2CCN(C(c3ccccc3)c3ccccc3)CC2)c2ccccc21` [1-{3-[4-(diphenylmethyl)-1-piperazinyl]propyl}-1,3-dihydro-3-(1-methylethenyl)-2H-benzimidazol-2-one], for which the ED50 in assay [1] (Table I-a) is 0.16 mg/kg. Further, the IC50 in assay [2] (setting [6]) is 0.01 µg/mL (≈ 0.0214 µM). Besides, the minimal effective dose in assay [3] (Table I-a) was 0.31 mg/kg.
Turning to `Clc1ccc(C(c2ccccc2)N2CCN(CCCn3cnc4ccccc43)CC2)cc1` (stereo not drawn) [I-b: M=H, R1=H, (CH2)3, R6=4-Cl, R7=H, 1-[3-{4-[(4-chlorophenyl)phenylmethyl]-1-piperazinyl}propyl]-1H-benzimidazole], the ED50 in assay [1] (Table I-b) was 0.08 mg/kg. For the same compound, the IC50 in assay [2] (setting [5]) amounted to 0.01 µg/mL (≈ 0.0225 µM). For the same compound, the minimal effective dose in assay [3] (Table I-b) turned out to be 0.31 mg/kg.
As to `Cn1c(=O)n(CCCN2CCN(C(c3ccccc3)c3ccccc3)CC2)c2ccccc21` [1-{3-[4-(diphenylmethyl)-1-piperazinyl]propyl}-1,3-dihydro-3-methyl-2H-benzimidazol-2-one dihydrochloride. hydrate], in assay [1] (Table I-a), the ED50 was 1.25 mg/kg. The IC50 in assay [2] (setting [6]) is 0.01 µg/mL. Moreover, the minimal effective dose in assay [3] (Table I-a) was 2.5 mg/kg.
Regarding `O=c1[nH]c2ccccc2n1CCCCN1CCC(OC(c2ccccc2)c2ccccc2)CC1` [1-{4-[4-(diphenylmethoxy)-1-piperidinyl]butyl}-1,3-dihydro-2H-benzimidazol-2-one], the ED50 in assay [1] (Table I-d) is 0.63 mg/kg. For the same compound, in assay [2] (Table I-d, read-out: Histamine in "vitro" (ileum) effective dose), the IC50 came to 0.005 µg/mL (≈ 0.011 µM). Besides, the minimal effective dose in assay [3] (Table I-d) was 0.31 mg/kg.
Consider `O=c1n(CO)c2ccccc2n1CCCN1CCN(C(c2ccccc2)c2ccccc2)CC1` [1-{3-[4-(diphenylmethyl)-1-piperazinyl]propyl}-1,3-dihydro-3-(hydroxymethyl)-2H-benzimidazol-2-one], for which the ED50 in assay [1] (Table I-a) was 0.31 mg/kg. Also, the IC50 in assay [2] (setting [6]) was 0.01 µg/mL (≈ 0.0219 µM). For the same compound, the minimal effective dose in assay [3] (Table I-a) came to 0.31 mg/kg.
`c1ccc(C(c2ccccc2)N2CCN(CCCCn3cnc4ccccc43)CC2)cc1` [I-b: M=H, R1=H, (CH2)4, R6=H, R7=H, 1-[4-[4-(diphenylmethyl)-1-piperazinyl]butyl}-1H-benzimidazole]: the ED50 in assay [1] (Table I-b) is 0.16 mg/kg. Also, the IC50 in assay [2] (setting [5]) amounted to 0.0025 µg/mL (≈ 0.00589 µM). In addition, the minimal effective dose in assay [3] (Table I-b) was 0.16 mg/kg.

The values are drawn from patent US4250176A, “Piperazine derivatives” (priority 1979, dated 1981).
